From patent US20240239813A1, “KRAS INHIBITORS AND PHARMACEUTICAL USES THEREOF” (RISEN (SUZHOU) PHARMA TECH CO., LTD., priority 2022, published 2024)

Key:
Format in all cases: cell-based
[1] = tested on: phosphorylation of p-ERK1/2 in AsPC-1; assay: Cellular phospho-ERK inhibition, AsPC-1; conditions: Homo sapiens, ASPC1; AsPC-1, 4 hours
Method: (§1) The ability of exemplary test compounds to inhibit the phosphorylation of p-ERK1/2, which is the downstream effector of KRas in multiple human cancer cell lines such as AsPC-1 (Cobioer, CBP60546), GP2D (Cobioer, CBP60683), NCI-H358 (Cobioer, CBP60544), NCI-H727 (Cobioer, CBP60182), MKN-1 (Cobioer, CBP60486), HCT116 (ATCC, CCL-247), and HT-29 (Cobioer, CBP60011), was measured. Signal reflecting cell proliferation was detected with the Advanced phospho-ERK (Thr202/Tyr204) cellular kit (Cisbio, 64AERPEG).
(§2) Cells were cultured in the growth phase and 3×10^4 cells per well were plated in a 96-well plate (Corning, 3599). Cells were incubated 24 hours at 37° C. and 5% carbon dioxide in a humidity chamber. Serially diluted exemplary compounds were added to the cell plate which was then incubated for another 4 hours in a humid tray at 37° C. and 5% carbon dioxide. 1× Lysis buffer (Cisbio, 64AERPEG) was prepared at ambient temperature. Cell culture medium was removed, then lysis buffer (50 μL/well) was added to the cell plate and the plate was incubated at room temperature for 30 minutes on a shaker. […] The luminescent signal was measured on the VICTOR Nivo multimode plate reader according to the manufacturer's instructions. […]
(§3) IC50 was determined by fitting percent inhibition at each inhibitor concentration to the four-parameter nonlinear logistic equation using GraphPad Prism. […]

[2] = tested on: phosphorylation of p-ERK1/2 in GP2D; assay: Cellular phospho-ERK inhibition, GP2D; conditions: Homo sapiens, 4 hours
Method: as §1, §2, §3

[3] = tested on: phosphorylation of p-ERK1/2 in NCI-H358; assay: Cellular phospho-ERK inhibition, NCI-H358; conditions: Homo sapiens; NCI-H358, 4 hours
Method: as §1, §2, §3

[4] = tested on: phosphorylation of p-ERK1/2 in NCI-H727; assay: Cellular phospho-ERK inhibition, NCI-H727; conditions: Homo sapiens; NCI-H727, 4 hours
Method: as §1, §2, §3

[5] = tested on: phosphorylation of p-ERK1/2 in HCT-116; assay: Cellular phospho-ERK inhibition, HCT-116; conditions: Homo sapiens; HCT-116, 4 hours
Method: as §1, §2, §3

[6] = tested on: phosphorylation of p-ERK1/2 in MKN-1; assay: Cellular phospho-ERK inhibition, MKN-1; conditions: Homo sapiens; MKN-1, 4 hours
Method: as §1, §2, §3

[7] = tested on: phosphorylation of p-ERK1/2 in HT-29; assay: Cellular phospho-ERK inhibition, HT-29; conditions: Homo sapiens; HT-29, 4 hours
Method: as §1, §2, §3

**Q.** For `CCc1c(F)ccc2cc(O)cc(-c3ncc4c(N5CCCC6(CCO6)C5)nc(OC[C@@]56CCCN5C[C@H](F)C6)nc4c3F)c12` (stereo partly shown) [Compound 25], which IC50 [1] is on record?
**A.** Its IC50 is 0.0174 µM.

**Q.** And the IC50 [2]?
**A.** The IC50 was 0.00336 µM.

**Q.** What about the IC50 [3] of the same molecule?
**A.** The IC50 was 0.0837 µM.

**Q.** What about the IC50 [4] of the same molecule?
**A.** The IC50 was 0.11 µM.

**Q.** What about the IC50 [5] of the same molecule?
**A.** The IC50 was 0.173 µM.

**Q.** And the IC50 [6]?
**A.** The IC50 was 0.00825 µM.

**Q.** And the IC50 [7]?
**A.** The IC50 was greater than 1 µM.
